Results on five compounds are retold here after ChEMBL document CHEMBL4808179 (Bioorg Med Chem Lett, 2021).

By MIC is commonly meant the least concentration at which growth counts as inhibited.

Values after ≈ are worked out from the molar mass of the structure shown.

Series [1] relates to Staphylococcus aureus. The series can be described thus: Antibacterial activity against methicillin-resistant Staphylococcus aureus USA300 assessed as bacterial growth inhibition. The class given is functional.
Series [2] concerns Staphylococcus aureus. The series can be described thus: Antibacterial activity against methicillin-resistant Staphylococcus aureus HS-663 assessed as bacterial growth inhibition. The class given is functional.
The subject of series [3] is Staphylococcus aureus. Put plainly: Antibacterial activity against vancomycin-intermediate Staphylococcus aureus Mu50 assessed as bacterial growth inhibition. The class given is functional.
Series [4] concerns Staphylococcus aureus. Put plainly: Antibacterial activity against methicillin-susceptible Staphylococcus aureus Newman assessed as bacterial growth inhibition. The class given is functional.
In series [5] the test system is Escherichia coli. Put plainly: Antibacterial activity against Escherichia coli AB1157 assessed as bacterial growth inhibition. The class given is functional.
For series [6], the system named is Acinetobacter baumannii. The series can be described thus: Antibacterial activity against Acinetobacter baumannii assessed as bacterial growth inhibition. The class given is functional.
The test system of series [7] is Enterococcus faecium. Put plainly: Antibacterial activity against vancomycin resistant Enterococcus faecium Van A HS-0649 assessed as inhibition of bacterial growth. The class given is functional.
For series [8], the system named is Enterococcus faecium. Put plainly: Antibacterial activity against vancomycin resistant Enterococcus faecium Van A HS-06188 assessed as inhibition of bacterial growth. The class given is functional.
Series [9] deals with Enterococcus faecium. Put plainly: Antibacterial activity against vancomycin resistant Enterococcus faecium Van M HS-0847 assessed as inhibition of bacterial growth. The class given is functional.
Series [10] relates to Enterococcus faecium. Put plainly: Antibacterial activity against vancomycin resistant Enterococcus faecium Van M HS-08267 assessed as inhibition of bacterial growth. The class given is functional.
Series [11] relates to Enterococcus faecium. The series can be described thus: Antibacterial activity against vancomycin resistant Enterococcus faecium Van B V(R) assessed as inhibition of bacterial growth. The class given is functional.
Series [12] deals with HEK-293T. The series can be described thus: Cytotoxicity against human HEK293T cells assessed as reduction in cell viability upto 25 uM. The class given is cell-based.
The test system of series [13] is L02. The series can be described thus: Cytotoxicity against human L02 cells assessed as reduction in cell viability < 6.25 uM. The class given is cell-based.
For series [14], the system named is Enterococcus faecium. The series can be described thus: Potency index, ratio of Vancomycin MIC to test compound MIC for antibacterial activity against vancomycin resistant Enterococcus faecium Van A HS-06188 assessed as inhibition of bacterial growth. The class given is functional.
For series [15], the system named is Enterococcus faecium. Put plainly: Potency index, ratio of Vancomycin MIC to test compound MIC for antibacterial activity against vancomycin resistant Enterococcus faecium Van M HS-0847 assessed as inhibition of bacterial growth. The class given is functional.
Series [16] relates to Enterococcus faecium. The series can be described thus: Potency index, ratio of Vancomycin MIC to test compound MIC for antibacterial activity against vancomycin resistant Enterococcus faecium Van M HS-08267 assessed as inhibition of bacterial growth. The class given is functional.
Series [17] concerns Enterococcus faecium. Put plainly: Potency index, ratio of Vancomycin MIC to test compound MIC for antibacterial activity against vancomycin resistant Enterococcus faecium Van B V(R) assessed as inhibition of bacterial growth. The class given is functional.
The subject of series [18] is Staphylococcus aureus. The series can be described thus: Potency index, ratio of Vancomycin MIC to test compound MIC for antibacterial activity against methicillin-susceptible Staphylococcus aureus Newman assessed as bacterial growth inhibition. The class given is functional.
For series [19], the system named is Staphylococcus aureus. Put plainly: Potency index, ratio of Vancomycin MIC to test compound MIC for antibacterial activity against vancomycin-intermediate Staphylococcus aureus Mu50 assessed as bacterial growth inhibition. The class given is functional.
Series [20] concerns L02. The series can be described thus: Cytotoxicity against human L02 cells assessed as reduction in cell viability >= 12.5 uM. The class given is cell-based.

For the compound `CN[C@H](CC(C)C)C(=O)N[C@H]1C(=O)N[C@@H](CC(N)=O)C(=O)N[C@H]2C(=O)N[C@H]3C(=O)N[C@H](C(=O)N[C@H](C(=O)NNCc4ccc(-c5ccc(Cl)cc5)cc4)c4cc(O)cc(O)c4-c4cc3ccc4O)[C@H](O)c3ccc(c(Cl)c3)Oc3cc2cc(c3O[C@@H]2O[C@H](CO)[C@@H](O)[C@H](O)[C@H]2O[C@H]2C[C@](C)(N)[C@H](O)[C@H](C)O2)Oc2ccc(cc2Cl)[C@H]1O`, the minimum inhibitory concentration (MIC) in series [1] is 1 µg/mL (≈ 0.601 µM); in [2] it was 0.0625 µg/mL (≈ 0.0376 µM); in [3] it was 4 µg/mL (≈ 2.4 µM); in [4], ≤ 0.0625 µg/mL; in [5], 128 µg/mL (≈ 76.9 µM); in series [6], 128 µg/mL (≈ 76.9 µM). In addition, the MIC came out at 16 µg/mL (≈ 9.62 µM) in [7]; 8 µg/mL (≈ 4.81 µM) in series [8]; 8 µg/mL (≈ 4.81 µM) in [9]; 4 µg/mL (≈ 2.4 µM) in series [10]; 4 µg/mL (≈ 2.4 µM) in series [11]. Besides, the Activity entry is listed as “Non-Toxic” in [12] and “Toxic” in series [13]. Further, the Ratio in series [14] turned out to be 8; in series [15], 8; in series [16], 8; in [17] it was 8; in series [18], 32; in [19], 2.
With `CN[C@H](CC(C)C)C(=O)N[C@H]1C(=O)N[C@@H](CC(N)=O)C(=O)N[C@H]2C(=O)N[C@H]3C(=O)N[C@H](C(=O)N[C@H](C(=O)N/N=C/c4ccc(-c5ccccc5)cc4)c4cc(O)cc(O)c4-c4cc3ccc4O)[C@H](O)c3ccc(c(Cl)c3)Oc3cc2cc(c3O[C@@H]2O[C@H](CO)[C@@H](O)[C@H](O)[C@H]2O[C@H]2C[C@](C)(N)[C@H](O)[C@H](C)O2)Oc2ccc(cc2Cl)[C@H]1O`, the MIC is 0.25 µg/mL (≈ 0.154 µM) in series [1]; 0.0625 µg/mL (≈ 0.0384 µM) in series [2]; 2 µg/mL (≈ 1.23 µM) in series [3]; ≤ 0.0625 µg/mL in series [4]; 128 µg/mL (≈ 78.6 µM) in series [5]; > 128 µg/mL in series [6]. In addition, the MIC in series [7] is 4 µg/mL (≈ 2.46 µM); in series [8], 4 µg/mL (≈ 2.46 µM); in series [9], 4 µg/mL (≈ 2.46 µM); in [10], 2 µg/mL (≈ 1.23 µM); in series [11] it was 2 µg/mL (≈ 1.23 µM). Moreover, the Ratio in [14] was 8; in series [15] it was 8; in series [16] it was 8; in series [17], 8; in series [18], 32; in series [19], 2.
Take `CN[C@H](CC(C)C)C(=O)N[C@H]1C(=O)N[C@@H](CC(N)=O)C(=O)N[C@H]2C(=O)N[C@H]3C(=O)N[C@H](C(=O)N[C@H](C(=O)N[C@@H](CS)C(=O)O)c4cc(O)cc(O)c4-c4cc3ccc4O)[C@H](O)c3ccc(c(Cl)c3)Oc3cc2cc(c3O[C@@H]2O[C@H](CO)[C@@H](O)[C@H](O)[C@H]2O[C@H]2C[C@](C)(N)[C@H](O)[C@H](C)O2)Oc2ccc(cc2Cl)[C@H]1O`: the MIC is 32 µg/mL (≈ 20.6 µM) in series [1]; 2 µg/mL (≈ 1.29 µM) in series [2]; 128 µg/mL (≈ 82.5 µM) in series [3]; 64 µg/mL (≈ 41.2 µM) in [4]; > 128 µg/mL in series [5]; > 128 µg/mL in [6]. Moreover, the MIC was > 128 µg/mL in [7]; 16 µg/mL (≈ 10.3 µM) in series [8]; 8 µg/mL (≈ 5.15 µM) in [9]; 8 µg/mL (≈ 5.15 µM) in series [10]; 8 µg/mL (≈ 5.15 µM) in [11]. In addition, the Activity result in series [20] was “Toxic”. Besides, the Ratio in [14], in series [15], in [16] and in [17] was 8 each time.
Take `CN[C@H](CC(C)C)C(=O)N[C@H]1C(=O)N[C@@H](CC(N)=O)C(=O)N[C@H]2C(=O)N[C@H]3C(=O)N[C@H](C(=O)N[C@H](C(=O)N/N=C/c4ccc(-c5ccc(Cl)cc5)cc4)c4cc(O)cc(O)c4-c4cc3ccc4O)[C@H](O)c3ccc(c(Cl)c3)Oc3cc2cc(c3O[C@@H]2O[C@H](CO)[C@@H](O)[C@H](O)[C@H]2O[C@H]2C[C@](C)(N)[C@H](O)[C@H](C)O2)Oc2ccc(cc2Cl)[C@H]1O`: the MIC in series [1] was 0.5 µg/mL (≈ 0.301 µM); in series [2], 0.0625 µg/mL (≈ 0.0376 µM); in series [3], 2 µg/mL (≈ 1.2 µM); in series [4] it was 0.5 µg/mL (≈ 0.301 µM); in [5] it was 128 µg/mL (≈ 77 µM); in series [6] it was > 128 µg/mL. For the same compound, the minimum inhibitory concentration (MIC) turned out to be 4 µg/mL (≈ 2.41 µM) in [7]; 16 µg/mL (≈ 9.63 µM) in [8]; 4 µg/mL (≈ 2.41 µM) in series [9]; 4 µg/mL (≈ 2.41 µM) in series [10]; 8 µg/mL (≈ 4.81 µM) in series [11]. Moreover, the Ratio amounted to 8 in [14]; 8 in series [15]; 8 in series [16]; 8 in [17]; 4 in [18]; 2 in [19].
With `CN[C@H](CC(C)C)C(=O)N[C@H]1C(=O)N[C@@H](CC(N)=O)C(=O)N[C@H]2C(=O)N[C@H]3C(=O)N[C@H](C(=O)N[C@H](C(=O)NNCc4ccc(-c5ccccc5)cc4)c4cc(O)cc(O)c4-c4cc3ccc4O)[C@H](O)c3ccc(c(Cl)c3)Oc3cc2cc(c3O[C@@H]2O[C@H](CO)[C@@H](O)[C@H](O)[C@H]2O[C@H]2C[C@](C)(N)[C@H](O)[C@H](C)O2)Oc2ccc(cc2Cl)[C@H]1O`, the MIC in [1] is 0.5 µg/mL (≈ 0.307 µM); in series [2] it was < 0.0625 µg/mL; in [3], 1 µg/mL (≈ 0.614 µM); in [4], ≤ 0.0625 µg/mL; in [5], 64 µg/mL (≈ 39.3 µM); in [6], 64 µg/mL (≈ 39.3 µM). Further, the MIC was found to be 8 µg/mL (≈ 4.91 µM) in series [7]; 8 µg/mL (≈ 4.91 µM) in [8]; 8 µg/mL (≈ 4.91 µM) in [9]; 4 µg/mL (≈ 2.45 µM) in series [10]; 4 µg/mL (≈ 2.45 µM) in series [11]. Moreover, the Ratio in series [14] came out at 8; in series [15], 8; in [16] it was 8; in [17] it was 8; in [18] it was 32; in series [19], 2.
